Test results as given in patent US5153352A, “Process for preparation of intermediates of carbocyclic nucleoside analogs” (priority 1990, dated 1992).
Values after ≈ are worked out from the molar mass of the structure shown. Values joined by “and” are separate entries in the source; they are usually repeats but may differ in a detail not shown here. Equal entries are not always repeated. One block for each compound: values may come before it.

Assays:
[1] = test system: Human Immunodeficiency Virus (HIV-1); experiment: anti-HIV-1 protection of ATH8 cells (method of Mitsuya and Broder); type: cell-based; settings: Human immunodeficiency virus 1, ATH-8, HIV-1, ATH8 cells, read-out: Protective Effect
From the text: (§1) The method of Mitsuya and Broder (AIDS: Modern Concepts and Therapeutic Challenges; Broder, S. ED.; Marcel Dekker, Inc.; New York, 1987; Chapter 18) was used to determine the in vitro anti-HIV-1 and anti-HIV-2 activity in ATH8 cells of some compounds of the invention. The results of the test are expressed as the percentage of ATH8 cells that were protected from the cytopathogenic effects of HIV at various concentrations of the compound of the invention.

[2] = test system: Human Cytomegalovirus (HCMV); experiment: HCMV virus yield reduction assay in MRC5 cells; type: cell-based, Human cytomegalovirus (strain AD169)
Protocol: (§2) Human diploid embryonic lung (MRC5) cells were grown in 35 mm wells of 6-well tissue culture plates. Subconfluent cell monolayers were rinsed with phosphate buffered saline (PBS) and were exposed to 0.5 ml/well of HCMV (strain AD169) suspension for 1.5 hours at 37° C. The virus suspension was diluted in MEM+2% fetal bovine serum (FBS) to yield a multiplicity of infection (MOI) of approximately 0.1 plaque forming units (PFU)/cell. Following the virus adsorption period, the inocula were removed and infected cell layers were rinsed with PBS. Aliquots (2.0 ml) of each test drug concentration (dissolved in MEM supplemented with 2% FBS) were dispensed into triplicate cell cultures: two virus infected cultures and one uninfected cytotoxicity control culture (exposed to medium without virus for 1.5 hours). Untreated virus infected control cultures and untreated, uninfected cell control cultures were fed with medium alone.
(§3) All cell culture fluids were replaced with fresh drug and medium 48 hours postinfection (p.i.).
On Day 6 p.i., the cell layers were examined microscopically for cytopathogenic effect (CPE) and drug cytotoxicity. The test and virus control cultures were then harvested by subjecting the cell layers to one cycle of freeze-thawing.
The harvested test and virus control samples were thawed and the infectious virus yield was determined by plaque assay in MRC5 cells grown in 12-well cluster plates. Inhibition of HCMV replication by each test compound was determined by comparing the progeny virus yields in the drug-treated cultures with the progeny virus yield in the untreated, virus infected control cultures.

[3] = MTT cytotoxicity assay in MRC5 cells; type: cell-based; settings: human
Protocol: as §2, §3
Drug cytotoxicity was determined quantitatively by a method based on the reduction of the tetrazolium salt, 3-(4,5-dimethyl-thiazol-2-yl)-2,5-diphenyl tetrazolium bromide (MTT) by mitochondrial enzymes of viable host cells to MTT formazan (T. Mosmann, 1983). Drug cytotoxicity controls and cell controls were treated with MTT (dissolved in culture medium) followed by 20% SDS (in 0.02 N HCl) to dissolve the crystals of MTT formazan. The blue color of the MTT formazan was measured spectrophotometrically at 570 nm. Drug cytotoxicity was determined by comparing the absorbance (O.D.) of each drug cytotoxicity control with the mean O.D. of the cell control cultures and expressed as percent of control.

[4] = test system: HCT8: Adenocarcinoma, ileocecal; experiment: cytotoxic activity against cultured tumor cells, HCT-8; type: cell-based; settings: Homo sapiens, 72 h; HCT-8, 3 days, MTT
[5] = cytotoxicity in uninfected PHA-stimulated human PBM cells; type: cell-based; settings: uninfected PBMC, 6 days, read-out: Cytotoxicity in PBMC IC50
Protocol: Human peripheral blood mononuclear cells (PBMC) from healthy HIV-1 seronegative and hepatitis B virus seroneqative donors were isolated by Ficoll-Hypague discontinuous gradient centrifugation at 1,000×g for 30 minutes, washed twice in phosphate buffered saline (pH 7.2; PBS), and pelleted at 300×g for 10 minutes. Before infection, the cells were stimulated by phytohemagglutinin (PHA) at a concentration of 16.7 ug/ml for three days in RPMI 1640 medium supplemented with 15% heat-inactivated fetal calf serum, 1.5 mM L-glutamine, penicillin (100 U/ml), streptomycin (100 ug/ml) and 4 mM sodium bicarbonate buffer.
The test compounds were evaluated for their potential toxic effects on uninfected PHA-stimulated human PBM cells. The cells were cultured with and without test compound for 6 days at which time aliquots were counted for cell viability.

[6] = test system: Herpes simplex type 1 (HSV-1) strain E-377; experiment: CPE-inhibition assay, HSV-1 strain E-377 in Vero cells
[7] = test system: Human Immunodeficiency Virus (HIV-2); experiment: anti-HIV-2 protection of ATH8 cells (method of Mitsuya and Broder); type: cell-based; settings: ATH-8, HIV-2, ATH8 cells, read-out: Protective Effect
From the text: as §1

[8] = cytotoxicity in ATH8 cells (method of Mitsuya and Broder); type: cell-based; settings: human
From the text: The method of Mitsuya and Broder (AIDS: Modern Concepts and Therapeutic Challenges; Broder, S. ED.; Marcel Dekker, Inc.; New York, 1987; Chapter 18) was used to determine the in vitro anti-HIV-1 and anti-HIV-2 activity in ATH8 cells of some compounds of the invention. […]

[9] = test system: Human Immunodificiency Virus (HIV-1); experiment: HIV-1 antigen inhibition in H9 cells; type: cell-based, HIV-1 (HTLV-IIIB); settings: Human immunodeficiency virus 1, HIV-1, H9 cells; for IC50: HIV antigen levels
Protocol: Uninfected H9 cells at 4×10^5 viable cells/ml were infected with approximately 100 viral infectious units (ifu) for 2 hrs at 37° C. The viral infectious dose (ifu) was determined by the tissue culture infectious dose (TCID50) method for each stock of HIV-1 (HTLV-IIIB) and HIV-2. Cells were washed three times to remove residual virus, then resuspended in RPMI-1640 growth medium containing test compound at various concentrations, then transferred to 24 well tissue culture plates and grown at 5% CO2 at 37° C. Infected cells in media containing no drug were run simultaneously as a control. Aliquots of culture supernatants were removed at 4, 6 and 10 days and monitored for HIV antigen levels by the Abbott HIV 1 antigen enzyme immunoassay (HIVAG-1). Cell viability was also determined at these time points and cells were refed with media containing test compound (except for control wells). Anti-HIV activity is reported as the concentration of compound causing a 50% inhibition (IC50) in HIV antigen levels versus infected cells without test compound.

A549: Lung carcinoma = experiment: cytotoxic activity against cultured tumor cells, A549; type: cell-based; settings: Homo sapiens, 72 h; A549, 3 days, MTT
[10] = Human betaherpesvirus 5, 144 h, 1.0 ug/ml
[11] = Human betaherpesvirus 5, 144 h, 3.2 ug/ml
[12] = Human betaherpesvirus 5, 144 h, 10 ug/ml
[13] = Human betaherpesvirus 5, 144 h, 32 ug/ml

SMILES: Nc1nc2c(ncn2C2CC(CO)C2CO)c(=O)[nH]1 (stereo not shown) [Example 1I, 9-(2',3'-Bis(hydroxymethyl)cyclobutyl)guanine]
inhibition at 1 µM [1]: 51% | inhibition at 10 µM [1]: 90% | HCMV yield ([2]; 1.0 ug/ml): 3.12 log10 PFU/ml | HCMV yield ([2]; 3.2 ug/ml): 2.43 log10 PFU/ml | HCMV yield ([2]; 10 ug/ml): 1.63 log10 PFU/ml | HCMV yield ([2]; 32 ug/ml): < 0.6 log10 PFU/ml | log reduction at 1 µg/mL [2, 10]: 1.15 | log reduction at 3.2 µg/mL [2, 11]: 1.84 | log reduction at 10 µg/mL [2, 12]: 2.64 | log reduction at 32 µg/mL [2, 13]: > 3.7 | viability ([3]; 1.0 ug/ml): 100% | viability ([3]; 3.2 ug/ml): 100% | viability ([3]; 10 ug/ml): 100% | viability ([3]; 32 ug/ml): 100% | IC50 [4]: > 100 µg/mL | CC50 at 144 h [5]: 38.8 µM | TI (Therapeutic Index, MTC/ID50) ([6]; HSV-1 (E-377), Vero): 213 and 129 | EC50 ([6]; Human alphaherpesvirus 1, Vero, read-out: ID50 (minimum drug concentration that inhibited the CPE by 50%), HSV-1 (E-377), Vero): 1.5 µg/mL (≈ 5.65 µM) | inhibition at 1 µM [7]: 24% | inhibition at 10 µM [7]: 65% | cytotoxicity at 1 µM ([8]; HIV-1 experiment): 0% | cytotoxicity at 10 µM ([8]; HIV-1 experiment): 0% | cytotoxicity at 1 µM ([8]; HIV-2 experiment): 11% | cytotoxicity at 10 µM ([8]; HIV-2 experiment): 11% | inhibition at 0.312 µM ([9]; 0.312 uM): 0% | inhibition at 0.625 µM [9]: 19% | inhibition at 1.25 µM ([9]; 1.25 uM): 63% | inhibition at 2.5 µM [9]: 75% | inhibition at 10 µM [9]: 88% | IC50 [9]: 1.1 µM | IC50 (A549: Lung carcinoma): 94.6 µg/mL (≈ 357 µM)

IC50 [9]: 2.1 µM
SMILES: Nc1ncnc2c1ncn2C1CC(CO)C1CO (stereo not shown) [Example 4C, 9-(2',3'-Bis(hydroxymethyl)cyclobutyl)adenine]
inhibition at 1 µM [1]: 48% | inhibition at 10 µM [1]: 63% | inhibition at 100 µM ([1]; 100 uM): 76% | HCMV yield ([2]; 0.32 ug/ml): 3.3 log10 PFU/ml | HCMV yield ([2]; 1.0 ug/ml): 2.6 log10 PFU/ml | HCMV yield ([2]; 3.2 ug/ml): < 0.6 log10 PFU/ml | HCMV yield ([2]; 10 ug/ml): < 0.6 log10 PFU/ml | HCMV yield ([2]; 32 ug/ml): < 0.6 log10 PFU/ml | log reduction at 0.32 µg/mL ([2]; Human betaherpesvirus 5, 144 h, 0.32 ug/ml): 1.4 | log reduction at 1 µg/mL [2, 10]: 2.1 | log reduction at 3.2 µg/mL [2, 11]: > 4.1 | log reduction at 10 µg/mL [2, 12]: > 4.1 | log reduction at 32 µg/mL [2, 13]: > 4.1 | viability ([3]; 3.2 ug/ml): 95% | viability ([3]; 10 ug/ml): 90% | viability ([3]; 32 ug/ml): 67% | IC50 [4]: 71.4 µg/mL (≈ 286 µM) | CC50 at 144 h [5]: 23 µM | TI (Therapeutic Index, MTC/ID50) ([6]; HSV-1 (E-377), Vero): 3.7 and > 2.2 | VR (Virus Rating) ([6]; HSV-1 (E-377), Vero, >1.0 definite, 0.5-0.9 marginal to moderate, <0.5 no significant activity): 2.1 | inhibition at 1 µM [7]: 33% | inhibition at 10 µM [7]: 70% | cytotoxicity at 1 µM ([8]; HIV-1 experiment): 12% | cytotoxicity at 10 µM ([8]; HIV-1 experiment): 33% | cytotoxicity at 100 µM ([8]; HIV-1 experiment, 100 uM): 34% | cytotoxicity at 1 µM ([8]; HIV-2 experiment): 9% | cytotoxicity at 10 µM ([8]; HIV-2 experiment): 15% | inhibition at 0.625 µM [9]: 0% | inhibition at 2.5 µM [9]: 62% | inhibition at 5 µM ([9]; 5 uM): 96% | inhibition at 10 µM [9]: 98% | IC50 (A549: Lung carcinoma): 49.1 µg/mL (≈ 197 µM)
